Experimental data as given in PubChem BioAssay AID1648 (Sanford-Burnham Center for Chemical Genomics, 2009).
The source made the active and inactive calls. The rule behind the calls is not given here.

These compounds were tested against Serine/threonine-protein kinase mTOR (Homo sapiens) (UniProt P42345) (assay: mTOR FRB domain ligand binding – biophysical, NMR (AID 1648)). Conditions: NMR binding to FRB domain, chemical shift.
Serine/threonine-protein kinase mTOR (Homo sapiens), sequence (P42345 2015-2114): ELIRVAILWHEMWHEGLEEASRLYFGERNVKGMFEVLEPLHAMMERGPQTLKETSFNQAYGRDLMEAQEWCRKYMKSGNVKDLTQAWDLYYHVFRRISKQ
For `CSc1nc2nc(C)cc(=O)n2[nH]1`, the Kd was > 4 mM (inactive).
`COc1cc(C(=S)N2CCC(C(N)=O)CC2)ccc1O` was tested, and the Kd was > 4 mM (inactive).
In the case of `O=C(O)c1ccc2c(c1)OCCO2`, the Kd is reported as > 4 mM (inactive).
With `COC(=O)c1c(OC)cc2c(c1C)Oc1c(Cl)c(O)c(Cl)c(C)c1C(=O)O2` the Kd was > 4 mM (inactive).
`Cc1cc(NC(=O)CSc2ccnc(=O)[nH]2)no1` was tested, and the Kd was > 4 mM (inactive).
For `Oc1cc(O)cc(/C=C/c2ccccc2)c1`, the Kd was > 4 mM (inactive).
For `CNC(=O)C(=O)Nc1c(C)cccc1C`, the Kd was > 4 mM (inactive).
For `O=C(c1cccs1)N1CCCc2ccccc21`, the Kd was > 4 mM (inactive).
For `NCc1ccc2sccc2c1`, the Kd was > 4 mM (inactive).
For `NC1=NC(=O)/C(=C\c2ccccc2)S1`, the Kd was > 4 mM (inactive).
For `Oc1cccc2[nH]ccc12`, the Kd was > 4 mM (inactive).
In the case of `Nc1nnc(COc2cccc(C(F)(F)F)c2)s1`, the Kd is reported as > 4 mM (inactive).
`Cc1sc2nc(NCCO)[nH]c(=O)c2c1C` was tested, and the Kd was > 4 mM (inactive).
For `C[C@@H]1CC[C@@]2(OC1)OC1C(O)C3C4CC[C@H]5C[C@H](O[C@@H]6O[C@H](CO)[C@H](O[C@@H]7O[C@H](CO)[C@@H](O)[C@H](O[C@@H]8OC[C@@H](O)[C@H](O)[C@H]8O)[C@H]7O[C@@H]7O[C@H](CO)[C@H](O)[C@H](O[C@@H]8O[C@H](CO)[C@@H](O)[C@H](O)[C@H]8O)[C@H]7O)[C@H](O)[C@H]6O)[C@H](O)C[C@]5(C)C4CC[C@]3(C)C1[C@@H]2C` (some centres undefined), the Kd was > 4 mM (inactive).
In the case of `CCN(CC)C(=O)c1n[nH]c(=O)c2ccccc12`, the Kd is reported as > 4 mM (inactive).
`N#Cc1cnn2c(C(F)(F)F)cc(C(F)(F)F)nc12` was tested, and the Kd was > 4 mM (inactive).
In the case of `CC(=O)O[C@@H]1CC[C@@]2(C)C(CC[C@]3(C)C2CC=C2C4CC(C)(C)CC[C@]4(C(=O)O)CC[C@]23C)C1(C)C` (some centres undefined), the Kd is reported as > 4 mM (inactive).
In the case of `O=C(CC1SC(=O)NC1=O)Nc1ccccc1` (centres undefined), the Kd is reported as > 4 mM (inactive).
In the case of `CC(=O)O[C@@H]1CC2C(C)(C)C(=O)C3OC3[C@]2(C)C2CC[C@@]3(C)[C@H](c4ccoc4)OC(=O)C4OC43[C@@]21C` (some centres undefined), the Kd is reported as > 4 mM (inactive).
With `O=C(O)/C=C(\CC(=O)O)C(=O)O` the Kd was > 4 mM (inactive).
`NC(=O)C(=O)NCc1ccc(Cl)cc1` was tested, and the Kd was > 4 mM (inactive).
In the case of `CNC(=O)C1=NCCCc2cc(OC)c(OC)cc21`, the Kd is reported as > 4 mM (inactive).
With `COc1cc([C@@H]2c3cc4c(cc3[C@H](OC(C)=O)[C@H]3COC(=O)[C@H]23)OCO4)cc(OC)c1OC` the Kd was > 4 mM (inactive).
In the case of `CCn1nnc(NC(=O)c2cc3ccccc3o2)n1`, the Kd is reported as > 4 mM (inactive).
With `O=C(O)c1cn(-c2ccccc2)nc1-c1cccnc1` the Kd was > 4 mM (inactive).
With `CC(=O)OCC(=O)[C@@]1(O)CCC2C3CC[C@@H]4C[C@H](OC(C)=O)CC[C@]4(C)C3C(=O)C[C@@]21C` (some centres undefined) the Kd was > 4 mM (inactive).
In the case of `CN(C)S(=O)(=O)NCc1ccc2c(c1)OCO2`, the Kd is reported as > 4 mM (inactive).
In the case of `O=c1cc(-c2ccccc2)oc2cc(O)c(O)c(O)c12`, the Kd is reported as > 4 mM (inactive).
With `CCOC(=O)c1csc(C2COc3ccccc3O2)n1` (centres undefined) the Kd was > 4 mM (inactive).
In the case of `Cc1cccc(-n2c(N)cc(=O)[nH]c2=S)c1C`, the Kd is reported as > 4 mM (inactive).
In the case of `O=C(/C=C/c1ccc(O)cc1)c1ccc(O)cc1O`, the Kd is reported as > 4 mM (inactive).
For `Cc1c(C)[n+]([O-])c(-c2ccc([N+](=O)[O-])cc2)n1O`, the Kd was > 4 mM (inactive).
For `CCc1c(C(=O)N2CCOCC2)csc1C`, the Kd was > 4 mM (inactive).
`NC(=O)c1ccccc1NC(=O)C1CCCO1` (centres undefined) was tested, and the Kd was > 4 mM (inactive).
For `COc1ccc(C(O)c2nccn2C)cc1` (centres undefined), the Kd was > 4 mM (inactive).
`CCc1ccc(/C=N/n2cnnc2)cc1` was tested, and the Kd was > 4 mM (inactive).
With `Cc1nc2ccccc2c(=O)n1NC(=O)C1CCCCC1` the Kd was > 4 mM (inactive).
`OCc1ncoc1-c1ccccc1` was tested, and the Kd was > 4 mM (inactive).
In the case of `Nc1cccc(S(N)(=O)=O)c1`, the Kd is reported as > 4 mM (inactive).
In the case of `O=C(O)C1Cc2c([nH]c3ccccc23)CN1` (centres undefined), the Kd is reported as > 4 mM (inactive).
With `CS(=O)(=O)c1cccc(C(=O)Nc2nccs2)c1` the Kd was > 4 mM (inactive).
In the case of `O=C(O)/C=C/c1ccc(O)c(O)c1`, the Kd is reported as > 4 mM (inactive).
In the case of `O=C1CS/C(=N/N=C2CCCC2)N1`, the Kd is reported as > 4 mM (inactive).
For `O=C(NCC1CCNCC1)c1ccccn1`, the Kd was > 4 mM (inactive).
In the case of `CC(=O)NC(=S)Nc1ccccc1N1CCOCC1`, the Kd is reported as > 4 mM (inactive).
In the case of `Cn1cnnc1Sc1ncnc(N)c1[N+](=O)[O-]`, the Kd is reported as > 4 mM (inactive).
For `CCc1c(C)[nH]c(=S)c(C(N)=O)c1C`, the Kd was > 4 mM (inactive).
`O=C(NCc1ccccn1)c1ccccc1Cl` was tested, and the Kd was > 4 mM (inactive).
In the case of `OC[C@H]1O[C@@H](O[C@H]2[C@H](O)[C@@H](O)[C@@H](O)O[C@@H]2CO)[C@H](O)[C@@H](O)[C@@H]1O`, the Kd is reported as > 4 mM (inactive).
For `C[C@@H]1CC[C@@]23CCC4(C)[C@@](C=CC5[C@@]6(C)CCC(=O)C(C)(C)C6CC[C@]54C)(OC2=O)C3[C@H]1C` (some centres undefined), the Kd was > 4 mM (inactive).
For `CCOC(=O)c1[nH]c(C)cc1C`, the Kd was > 4 mM (inactive).
In the case of `Nc1cccc(NC(=O)c2ccco2)c1`, the Kd is reported as > 4 mM (inactive).
`NC(=O)CN1CCCCCC1=O` was tested, and the Kd was > 4 mM (inactive).
In the case of `Cc1cccc(-c2nnc(-c3ccc(N)cc3)o2)c1`, the Kd is reported as > 4 mM (inactive).
In the case of `COc1cc(OC)c2ccc(=O)oc2c1`, the Kd is reported as > 4 mM (inactive).
For `Cc1ccc(SCc2nc(-c3cccnc3)no2)cc1`, the Kd was > 4 mM (inactive).
With `CC(CO)NC(=O)C1C=C2c3cccc4[nH]cc(c34)C[C@H]2N(C)C1` (some centres undefined) the Kd was > 4 mM (inactive).
`Cc1ccc(-c2nc(-c3cccnc3)no2)cc1` was tested, and the Kd was > 4 mM (inactive).
For `O=C(O)c1ccccc1C(=O)Nc1ccccc1`, the Kd was > 4 mM (inactive).
With `Cc1ccc(SCc2nc(-c3ccncc3)no2)cc1` the Kd was > 4 mM (inactive).
With `CC(=O)Nc1ccc(C)cc1NC(C)=O` the Kd was > 4 mM (inactive).
With `COc1c(OC)c2occc2c2oc(=O)ccc12` the Kd was > 4 mM (inactive).
For `Cn1nnc2cc(C(=O)NC3CCCCC3)ccc21`, the Kd was > 4 mM (inactive).
With `CC1=C2C(O)C(=O)OC3CC4C(C)(C)C(=O)C=C[C@]4(C)C(CC1)[C@]23C` (some centres undefined) the Kd was > 4 mM (inactive).
`CC(=O)OC[C@@]1(O)C[C@@]23CCC4c5ccoc5CC[C@]4(C)C2CC[C@@H]1C3` (some centres undefined) was tested, and the Kd was > 4 mM (inactive).
In the case of `Cc1nc(SCC(=O)c2c[nH]c3ccccc23)n[nH]1`, the Kd is reported as > 4 mM (inactive).
In the case of `NS(=O)(=O)c1ccc(NC(=O)c2ccccc2F)cc1`, the Kd is reported as > 4 mM (inactive).
With `CCN1CCN(CCCNc2ncnc3nc[nH]c23)CC1` the Kd was > 4 mM (inactive).
In the case of `Cc1ccc(SCC(=O)N2CCOCC2)cc1`, the Kd is reported as > 4 mM (inactive).
With `OC[C@H]1O[C@@H](n2cnc3c(NCc4ccco4)ncnc32)[C@H](O)[C@@H]1O` the Kd was > 4 mM (inactive).
In the case of `CCOC(=O)c1ccc(F)cc1F`, the Kd is reported as > 4 mM (inactive).
`O=C(O)/C=C/C(=O)Nc1ccccc1C(F)(F)F` was tested, and the Kd was > 4 mM (inactive).
For `N#Cc1cc2ccccc2nc1N`, the Kd was > 4 mM (inactive).
With `Cc1cc(C)n2nc(Cc3ccccc3)nc2n1` the Kd was > 4 mM (inactive).
For `CC(=O)NC(=S)Nc1nc2ccccc2n1C(C)=O`, the Kd was > 4 mM (inactive).
`CNC(=O)Nc1ccc(C(=O)NC)cc1` was tested, and the Kd was > 4 mM (inactive).
`O=C(CN1C(=O)CCC1=O)c1ccccc1` was tested, and the Kd was > 4 mM (inactive).
In the case of `Cc1cccc(OCc2nnc(N)s2)c1`, the Kd is reported as > 4 mM (inactive).
For `O=C(NCc1ccco1)c1ccc(=O)[nH]c1`, the Kd was > 4 mM (inactive).
